The values that follow come from ChEMBL document CHEMBL5137009, “On the Utility of Chemical Strategies to Improve Peptide Gut Stability” (J Med Chem, 2022).

Where only a bound is given, the exact number is not on record here.

Series [1] can be described thus: Stability of the compound in simulated gastric fluid at pH 1.2 assessed as half life measured up to 24 hrs by RP-HPLC-UV analysis. It is filed as ADME.
The nature of series [2]: Stability of the compound in simulated intestinal fluid at pH 6.8 assessed as half life measured up to 24 hrs by RP-HPLC-UV analysis. It is filed as ADME.

The half-life is how long it takes for the measured level to halve. On to `CC[C@H](C)[C@@H]1NC(=O)[C@H](CCC(=O)O)NC(=O)[C@@H]2CCCN2C(=O)[C@H](Cc2cnc[nH]2)NC(=O)[C@H](CC(=O)O)NC(=O)[C@H](Cc2ccc(O)cc2)NC(=O)[C@H](CC(N)=O)NC(=O)[C@@H]2CSSC[C@H](NC(=O)CN)C(=O)N[C@@H](CSSC[C@@H](C(N)=O)NC1=O)C(=O)N[C@@H](CO)C(=O)N[C@@H](CC(=O)O)C(=O)N1CCC[C@H]1C(=O)N[C@@H](CCCNC(=N)N)C(=O)N2`, for which the results for the half-life in series [1] and in series [2] were greater than 24 h and 2.4 h, respectively.

On to `CC(C)C[C@@H]1NC(=O)[C@H](CCC(=O)O)NC(=O)[C@@H](NC(=O)[C@H](CCC(=O)O)NC(=O)[C@H](CC(=O)O)NC(=O)[C@H](N)CC(N)=O)CSSC[C@@H]2NC(=O)[C@H](C)NC(=O)[C@H](C(C)C)NC(=O)[C@H](CC(N)=O)NC(=O)[C@H](C(C)C)NC(=O)[C@H](CSSC[C@@H](C(=O)N[C@H](CC(C)C)C(=O)O)NC(=O)CNC(=O)[C@H]([C@@H](C)O)NC2=O)NC1=O`, for which the half-life in series [1] and in series [2] was greater than 24 h throughout.

For the molecule `CC[C@H](C)[C@@H]1NC(=O)[C@@H]2CCCN2C(=O)[C@H](Cc2c[nH]c3ccccc23)NC(=O)[C@H](CO)NC(=O)[C@@H]2CSSC[C@@H]3NC(=O)[C@H]([C@@H](C)O)NC(=O)[C@H](CCC(=O)O)NC(=O)CNC(=O)[C@@H]4CSSC[C@H](NC(=O)CNC(=O)[C@H](CCC(N)=O)NC(=O)[C@H]([C@@H](C)O)NC(=O)[C@H](Cc5ccc(O)cc5)NC(=O)[C@H](CSSC[C@H](NC1=O)C(=O)N[C@@H](CCCCN)C(=O)N[C@@H](CCCNC(=N)N)C(=O)N[C@@H](CC(N)=O)C(=O)NCC(=O)N[C@@H](CC(C)C)C(=O)N1CCC[C@H]1C(=O)N[C@@H](C(C)C)C(=O)N4)NC(=O)[C@H]([C@@H](C)O)NC(=O)CNC(=O)[C@H](CC(C)C)NC(=O)[C@H]([C@@H](C)O)NC3=O)C(=O)N[C@@H]([C@@H](C)O)C(=O)N2`, the half-life in series [1] and in series [2] was greater than 24 h in each case.
